This note sets out measurements from publication PMC10969960, “Novel Anthraquinone-Based Benzenesulfonamide Derivatives and Their Analogues as Potent Human Carbonic Anhydrase Inhibitors with Antitumor Activity: Synthesis, Biological Evaluation, and In Silico Analysis” (International Journal of Molecular Sciences, 2024).

Where two headings read alike, the source gives them in different places.

The target in one data set is T1, hCA II (Homo sapiens, UniProt P00918).
T1 construct: purchased Shanghai Jining Biological
As to the kind of experiment: CA inhibition assay, 4-nitrophenyl acetate (4-NPA) esterase assay. Format: biochemical. Conditions: errors ±5–10% of the reported values.

The target of a further data set is T2, hCA IX (Homo sapiens, UniProt Q16790).
T2 construct: purchased Shanghai Jining Biological
The data set is described as above. Format: biochemical. Conditions: errors ±5–10% of the reported values.

The test system of a further data set is HepG2 cancer cells. Description: MTT anti-proliferative assay. It counts as cell-based. Conditions: Homo sapiens, 24 h. (Tetrazolium dyes change colour on reduction, which living cells bring about.)
The test system of a further data set is MCF-7 cancer cells. As to the kind of experiment: MTT anti-proliferative assay. It counts as cell-based. Particulars: Homo sapiens, MCF7, 24 h.
In the next data set the test system is MDA-MB-231 cancer cells. As to the kind of experiment: MTT anti-proliferative assay. Format: cell-based. Conditions: Homo sapiens, 24 h.
Where [1] appears, read: hypoxic (0.5% O2), read-out: IC50 HepG2 Hypo.
The mark [2] stands for this setting: normoxic, read-out: IC50 HepG2 Normo.
Setting [3] is: hypoxic (0.5% O2), read-out: IC50 MCF-7 Hypo.
Where [4] appears, read: normoxic, read-out: IC50 MCF-7 Normo.
The mark [5] stands for this setting: hypoxic (0.5% O2), read-out: IC50 MDA-MB-231 Hypo.
The mark [6] stands for this setting: normoxic, read-out: IC50 MDA-MB-231 Normo.

As a reminder, the melting point is the temperature of the solid-liquid transition. Broadly, the IC50 is the concentration that gives 50% inhibition.

Procedure for HepG2 cancer cells: (§1) The median growth-inhibitory concentration (IC50) in the treated cells was compared to that of untreated controls. Cells were cultured under normoxic and hypoxic conditions to evaluate the effects of the compounds on cancer cell viability.
(§2) The cell cultures were passaged once every 2–3 days.
(§3) The 3-(4,5-dimethylthiazol-2-yl)-2,5-diphenyltetrazolium bromide (MTT) assay was used to measure the cell viability. Cells were planted into 96-well plates (4 × 10^3 cells per well) and cultured in media containing different concentrations of compounds. […] The supernatant was then discarded, and 150 μL of DMSO was added to each well, followed by gentle shaking. The absorbance value at 570 nm was measured using an EL808 microplate reader (Bio-TEK Instrument, Winooski, VT, USA).
Procedure for MCF-7 cancer cells: as §1, §2, §3
Procedure for MDA-MB-231 cancer cells: as §1, §2, §3
Procedure for hCA II: (§4) The inhibitory activity was evaluated by monitoring the hydrolysis of 4-nitrophenylacetate (4-NPA.).
(§5) Therefore, according to the method described by Verpoorte previously [32], 4-NPA was catalyzed into 4-nitrophenol for the determination of CA activity.
(§6) The substrate (4-NPA) was dissolved in DMSO at a substrate concentration of 1 mM. Standard hCAs II and IX (acquired from Shanghai Jining Biological) were diluted to the indicated concentrations with assay buffer and added to the cells. Different concentrations of inhibitors were added to the cells, followed by incubation at room temperature for 15 min to form complexes of inhibitors and enzymes (E-I). Then, 100 μL of E-I complex and 900 μL of substrate were successively added to a 1 mL glass cuvette and mixed immediately. […] At the same time, the non-enzymatic hydrolysis rate was determined by a blank control test. Standard hCAs II and IX were diluted to final concentrations of 1.5 ng/μL and 5 ng/μL, respectively [26, 35]. The FORECAST (x, known-y’s, known-x’s) command of Excel was used to return a predicted value through the linear regression equation to calculate the IC50 values. The experiments were repeated three times for each inhibitor concentration.
Procedure for hCA IX: as §4, §5, §6

Regarding `O=C(O)c1ccc(NC(=S)NC(=O)c2ccc3c(c2)C(=O)c2ccccc2C3=O)cc1` [Compound 5a, (3-(9,10-Dioxo-9,10-Dihydroanthracene-2-Carbonyl) Thioureido) Benzoic Acid], the melting point is 221 to 221.4 °C. Moreover, at hCA II, the IC50 was determined as 113 nM. Further, the IC50 at hCA IX was found to be 217 nM.
With `O=C(O)c1cccc(NC(=S)NC(=O)c2ccc3c(c2)C(=O)c2ccccc2C3=O)c1` [Compound 5b, 3-(3-(9,10-Dioxo-9,10-Dihydroanthracene-2-Carbonyl) Thioureido) Benzoic Acid], the IC50 against hCA II was found to be 135 nM; against hCA IX it was 254 nM.
The molecule `NS(=O)(=O)c1cccc(NC(=S)NC(=O)c2ccc3c(c2)C(=O)c2ccccc2C3=O)c1` [Compound 5d, 9,10-Dioxo-N-((3-Sulfamoylphenyl)Carbamothioyl)-9,10-Dihydroanthracene-2-Carboxamide] returned a melting point of 146.5 to 146.8 °C. The same molecule gave an IC50 on hCA II of 64.3 nM. On hCA IX, this molecule had an IC50 of 73.6 nM.
For `CC(=O)c1ccc(NC(=S)NC(=O)c2ccc3c(c2)C(=O)c2ccccc2C3=O)cc1` [Compound 5e, ((4-Acetylphenyl)Carbamothioyl)-9,10-Dioxo-9,10-Dihydroanthracene-2-Carboxamide], in that order: 215 to 215.9 °C, 132 nM and 275 nM.
`COC(=O)c1ccc(NC(=S)NC(=O)c2ccc3c(c2)C(=O)c2ccccc2C3=O)cc1` [Compound 5f, Methyl 4-(3-(9,10-Dioxo-9,10-Dihydroanthracene-2-Carbonyl)Thioureido)Benzoate] came in with a melting point of 211 to 211.4 °C. At hCA II, this molecule returned an IC50 of 147 nM. In addition, on hCA IX, the IC50 came to 190 nM.
For `COC(=O)c1cccc(NC(=S)NC(=O)c2ccc3c(c2)C(=O)c2ccccc2C3=O)c1` [Compound 5g, Methyl 3-(3-(9,10-Dioxo-9,10-Dihydroanthracene-2-Carbonyl)Thioureido)Benzoate], in that order: 187 to 187.3 °C, 238 nM and 251 nM.
For `NS(=O)(=O)c1ccc(CCNC(=S)NC(=O)c2ccc3c(c2)C(=O)c2ccccc2C3=O)cc1` [Compound 5h, 9,10-Mioxo-N-((4-Sulfamoylphenethyl)Carbamothioyl)-9,10-Dihydroanthracene-2-Carboxamide], the melting point lay within 323 to 323.5 °C. Besides, the 50% inhibitory concentration (IC50) with HepG2 cancer cells (setting [1]) was 80400 ± 7140 nM. Also, the IC50 in the data set on HepG2 cancer cells (setting [2]) was 81400 ± 7030 nM. Moreover, the IC50 in the data set with MCF-7 cancer cells (setting [3]) came to 57400 ± 5500 nM. Besides, in the data set with MCF-7 cancer cells (setting [4]), the IC50 was 63800 ± 5570 nM. Further, inhibition against hCA II was half-maximal at 21.2 nM (IC50). Besides, in the data set with MDA-MB-231 cancer cells (setting [5]), the IC50 amounted to 81200 ± 7340 nM. The IC50 in the data set with MDA-MB-231 cancer cells (setting [6]) amounted to 75200 ± 6810 nM. The IC50 against hCA IX was found to be 46.2 nM.
Consider `CNS(=O)(=O)c1ccc(NC(=S)NC(=O)c2ccc3c(c2)C(=O)c2ccccc2C3=O)cc1` [Compound 5i, ((4-(N-Methylsulfamoyl)Phenyl)Carbamothioyl)-9,10-Anthraquinone-2-Carboxamide], for which the melting point was in the range of 207 to 207.6 °C. This molecule had a concentration for half-maximal inhibition (IC50) on hCA II of 76.7 nM. On hCA IX, this molecule came in with an IC50 of 100 nM.
`O=C(NC(=S)Nc1ccc(S(=O)(=O)Nc2ncccn2)cc1)c1ccc2c(c1)C(=O)c1ccccc1C2=O` [Compound 5j] registered a melting point of 237 to 237.2 °C. For the same molecule, the half-inhibitory concentration (IC50) on hCA II is 87.7 nM. At hCA IX, this molecule returned an IC50 of 77.7 nM.
`CC(=O)NS(=O)(=O)c1ccc(NC(=S)NC(=O)c2ccc3c(c2)C(=O)c2ccccc2C3=O)cc1` [Compound 5k, ((4-(N-Acetylsulfamoyl)Phenyl)Carbamothioyl)-9,10-Dioxo-9,10-Dihydroanthracene-2-Carboxamide] yielded a melting point of 192 to 192.4 °C. For the same molecule, 156 nM corresponded to half-maximal inhibition against hCA II (IC50). Besides, it took 227 nM to reach half-maximal inhibition on hCA IX (IC50).
Consider `O=C(NC(=S)Nc1ccc(S(=O)(=O)Nc2nccs2)cc1)c1ccc2c(c1)C(=O)c1ccccc1C2=O` [Compound 5m, 9,10-Dioxo-N-((4-(N-(Thiazol-2-yl)Sulfamoyl)Phenyl)Carbamothioyl)-9,10-Dihydroanthracene-2-Carboxamide], for which the figures for the IC50 at hCA II and on hCA IX were 95.9 nM and 71 nM, respectively.
With `N=C(N)NS(=O)(=O)c1ccc(NC(=S)NC(=O)c2ccc3c(c2)C(=O)c2ccccc2C3=O)cc1` [Compound 5n, ((4-(N-Carbamimidoylsulfamoyl)Phenyl)Carbamothioyl)-9,10-Dioxo-9,10-Dihydroanthracene-2-Carboxamide], the melting point lay within 206 to 206.5 °C. The IC50 on hCA II was 98.4 nM. The same molecule displayed an IC50 against hCA IX of 103 nM.
With `O=C(O)c1ccc(NC(=O)c2ccc3c(c2)C(=O)c2ccccc2C3=O)cc1` [Compound 6a, 4-(9,10-Dioxo-9,10-Dihydroanthracene-2-Carboxamido)Benzoic Acid], the melting point fell in the range of 338 to 338.5 °C. The molecule also showed an IC50 on hCA II of 296 nM. The molecule further had an IC50 against hCA IX of 194 nM.
For the molecule `O=C(O)c1cccc(NC(=O)c2ccc3c(c2)C(=O)c2ccccc2C3=O)c1` [Compound 6b, (9,10-Dioxo-9,10-Dihydroanthracene-2-Carboxamido)Benzoic Acid], the melting point fell in the range of 274 to 274.6 °C. At hCA II, this molecule showed an IC50 of 274 nM. At hCA IX, it took 166 nM to reach half-maximal inhibition (IC50).
Consider `NS(=O)(=O)c1ccc(NC(=O)c2ccc3c(c2)C(=O)c2ccccc2C3=O)cc1` [Compound 6c, 9,10-Dioxo-N-(4-Sulfamoylphenyl)-9,10-Dihydroanthracene-2-Carboxamide], for which the melting point is 341 to 341.3 °C. In addition, the IC50 in the data set with HepG2 cancer cells (setting [1]) came to 62800 ± 5520 nM. The IC50 in the data set with HepG2 cancer cells (setting [2]) came to 68800 ± 4170 nM. In addition, the IC50 with MCF-7 cancer cells (setting [3]) was 47000 ± 4010 nM. Further, the IC50 in the data set with MCF-7 cancer cells (setting [4]) was found to be 50400 ± 4730 nM. Moreover, the half-maximal inhibitory concentration (IC50) on hCA II came out at 68.3 nM. Further, the IC50 with MDA-MB-231 cancer cells (setting [5]) was found to be 61600 ± 5130 nM. Besides, the IC50 with MDA-MB-231 cancer cells (setting [6]) is 56300 ± 4190 nM. This molecule also gave an IC50 at hCA IX of 34.9 nM.
With `NS(=O)(=O)c1cccc(NC(=O)c2ccc3c(c2)C(=O)c2ccccc2C3=O)c1` [Compound 6d, 9,10-Dioxo-N-(3-Sulfamoylphenyl)-9,10-Dihydroanthracene-2-Carboxamide], the melting point lay within 283 to 283.2 °C. The molecule further came in with an IC50 against hCA II of 91.2 nM. The IC50 against hCA IX was found to be 55.9 nM.
`CC(=O)c1ccc(NC(=O)c2ccc3c(c2)C(=O)c2ccccc2C3=O)cc1` [Compound 6e, N-(4-Acetylphenyl)-9,10-Dioxo-9,10-Dihydroanthracene-2-Carboxamide] registered a melting point of 266 to 266.5 °C. Moreover, on hCA IX, the IC50 amounted to 168 nM.
For `NS(=O)(=O)c1ccc(CCNC(=O)c2ccc3c(c2)C(=O)c2ccccc2C3=O)cc1` [Compound 6h, 9,10-Dioxo-N-(4-Sulfamoylphenethyl)-9,10-Dihydroanthracene-2-Carboxamide], the IC50 was determined as 54300 ± 5150 nM in the data set on HepG2 cancer cells (setting [1]); 58200 ± 5450 nM in the data set on HepG2 cancer cells (setting [2]); 30300 ± 3140 nM with MCF-7 cancer cells (setting [3]); 41400 ± 2220 nM in the data set with MCF-7 cancer cells (setting [4]); 61.8 nM against hCA II; 50400 ± 4270 nM in the data set with MDA-MB-231 cancer cells (setting [5]). The IC50 in the data set on MDA-MB-231 cancer cells (setting [6]) was 54200 ± 4870 nM; against hCA IX it was 30.1 nM.
In turn, `CNS(=O)(=O)c1ccc(NC(=O)c2ccc3c(c2)C(=O)c2ccccc2C3=O)cc1` [Compound 6i, N-(4-(N-Methylsulfamoyl)Phenyl)-9,10-Dioxo-9,10-Dihydroanthracene-2-Carboxamide] returned a melting point of 273 to 273.8 °C. This molecule yielded a 50% inhibitory concentration (IC50) at hCA II of 172 nM. The molecule also returned a 50% inhibitory concentration (IC50) at hCA IX of 110 nM.
Consider `CC(=O)NS(=O)(=O)c1ccc(NC(=O)c2ccc3c(c2)C(=O)c2ccccc2C3=O)cc1` [Compound 6k, N-(4-(N-Acetylsulfamoyl)Phenyl)-9,10-Dioxo-9,10-Dihydroanthracene-2-Carboxamide], for which the melting point lay within 304 to 304.3 °C. Moreover, the midpoint of inhibition on hCA II, the IC50, lay at 170 nM. The molecule also displayed an IC50 on hCA IX of 140 nM.
